Here are results for 22 molecules from patent US20250129021A1, “SMALL MOLECULE PROTEIN SYNTHESIS MODULATORS” (Interdict Bio, Inc., priority 2023, published 2025).

Common to all, as to assay type: biochemical
One experiment concerns CCNTB1. Briefly: In vitro transcription-translation (IVTT) assay, CCNTB1 reporter. The conditions noted are these: HeLa S3 lysate, 2 hrs at 30° C. The method, boiled down: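 IC50 fitted from the sfGFP/mCherry fluorescence ratio, normalized to no-drug control after no-DNA background subtraction. Reactions ran 2 h at 30° C in HeLa S3 cell lysate with reporter plasmid DNA and half-log compound titrations (30 μM−0.1 μM, in DMSO).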

The next experiment has as its system CCND1. Briefly: In vitro transcription-translation (IVTT) assay, CCND1 reporter. The settings on record: IVTT, HeLa S3 lysate, 2 hrs at 30° C. A digest of the protocol: (§1)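 Reporter: mCherry, P2A, then 3×FLAG-target peptide-sfGFP fusion, IRES-initiated; HeLa S3 lysate IVTT; cpd dilutions 30 μM−0.1 μM half-log in 100% DMSO (dilution-plate conc); DNA added last; 2 h, 30° C; PBS quench.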

Another experiment relates to MCL-1. Briefly: In vitro transcription-translation (IVTT) assay, MCL-1 reporter. The settings on record: IVTT, HeLa S3 lysate, 2 hrs at 30° C.; read-out: MCL1 IC50. The method, boiled down: as §1
The next experiment relates to MYC. The experiment in a line: In vitro transcription-translation (IVTT) assay, MYC reporter. The conditions noted are these: IVTT assay, HeLa S3 lysate, MYC reporter, normalized sfGFP/mCherry ratio; half-log dilutions 30 μM-0.1 μM, 2 hrs at 30° C. A digest of the protocol: as §1

Regarding `COc1ccc(C[C@H]2NC[C@H](O)[C@H]2OC(=O)NCc2ccc(C(N)=O)cc2)cc1` [V188296, (2R,3S,4S)-4-hydroxy-2-[(4-methoxyphenyl)methyl]pyrrolidin-3-yl N-[(4-carbamoylphenyl)methyl]carbamate], the IC50 in the experiment on CCNTB1, with CCND1, in the experiment on MCL-1 and in the experiment on MYC was less than 10 µM each time.

Take `COc1ccc(C[C@H]2NC[C@H](O)[C@H]2OC(=O)NCC[C@@H]2CCN2)cc1` [V191920, (2R,3S,4S)-4-hydroxy-2-[(4-methoxyphenyl)methyl]pyrrolidin-3-yl N-{2-[(2S)-azetidin-2-yl]ethyl}carbamate]: the IC50 with CCNTB1, with CCND1, in the experiment on MCL-1 and in the experiment with MYC was less than 10 µM in each case.

On to `CC(F)(F)c1ccc(C[C@H]2NC[C@H](O)[C@H]2OC(=O)NCC[C@@H]2CCCN2)cc1` [V191885, (2R,3S,4S)-2-{[4-(1,1-difluoroethyl)phenyl]methyl}-4-hydroxypyrrolidin-3-yl N-{2-[(2S)-pyrrolidin-2-yl]ethyl}carbamate], for which the IC50 in the experiment on CCNTB1 is less than 10 µM; in the experiment on CCND1, 10 to 20 µM; in the experiment with MCL-1, less than 10 µM; in the experiment on MYC, less than 10 µM.

In the case of `O=C(NCc1cccc(F)c1)O[C@@H]1[C@@H](O)CN[C@@H]1Cc1ccc(OC(F)(F)F)cc1` [V190509, (2R,3S,4S)-4-hydroxy-2-(4-(trifluoromethoxy)benzyl)pyrrolidin-3-yl (3-fluorobenzyl)carbamate], the IC50 in the experiment with CCNTB1 was 20 to 30 µM; in the experiment with CCND1, more than 30 µM; in the experiment with MCL-1, more than 30 µM; in the experiment with MYC, more than 30 µM.

Consider `O=C(NCC[C@@H]1CCCN1)O[C@@H]1[C@@H](O)CN[C@@H]1Cc1ccc(-c2ccc(F)c(F)c2)cc1` [V191962, (2R,3S,4S)-2-({3′,4′-difluoro-[1,1′-biphenyl]-4-yl}methyl)-4-hydroxypyrrolidin-3-yl N-{2-[(2S)-pyrrolidin-2-yl]ethyl}carbamate], for which the IC50 with CCNTB1, in the experiment on CCND1, with MCL-1 and with MYC was more than 30 µM throughout.

With `COc1ccc(C[C@H]2NC[C@H](O)[C@H]2OC(=O)NCCc2c(C)noc2C)cc1` [V190414, (2R,3S,4S)-4-hydroxy-2-[(4-methoxyphenyl)methyl]pyrrolidin-3-yl N-[2-(3,5-dimethyl-1,2-oxazol-4-yl)ethyl]carbamate], the 50% inhibitory concentration (IC50) in the experiment on CCNTB1 was 20 to 30 µM; with CCND1, more than 30 µM; with MCL-1, more than 30 µM; in the experiment on MYC, more than 30 µM.

Consider `COc1ccc(C[C@H]2NC[C@H](O)[C@H]2OC(=O)NCc2cccc3cn[nH]c23)cc1` [V190459, (2R,3S,4S)-4-hydroxy-2-[(4-methoxyphenyl)methyl]pyrrolidin-3-yl N-(1H-indazol-7-ylmethyl)carbamate], for which the IC50 is less than 10 µM in the experiment with CCNTB1, 10 to 20 µM in the experiment with CCND1, less than 10 µM in the experiment with MCL-1 and less than 10 µM with MYC.

For the molecule `COc1ccc(C[C@H]2NC[C@H](O)[C@H]2OC(=O)NCCc2ccc3c(c2)CNC3)cc1` [V188344, (2R,3S,4S)-4-hydroxy-2-[(4-methoxyphenyl)methyl]pyrrolidin-3-yl N-[2-(2,3-dihydro-1H-isoindol-5-yl)ethyl]carbamate], the half-maximal inhibitory concentration (IC50) with CCNTB1, in the experiment on CCND1, with MCL-1 and in the experiment on MYC was less than 10 µM in each case.

For the molecule `COc1ccc(C[C@H]2NC[C@H](O)[C@H]2OC(=O)NCc2ccc(C3CNC3)cc2)cc1` [V190559, (2R,3S,4S)-4-hydroxy-2-[(4-methoxyphenyl)methyl]pyrrolidin-3-yl N-{[4-(azetidin-3-yl)phenyl]methyl}carbamate], the IC50 with CCNTB1, with CCND1, with MCL-1 and in the experiment on MYC was less than 10 µM each time.

As for `O=C(NCc1cccc(F)c1)O[C@@H]1[C@@H](O)CN[C@@H]1Cc1ccc(F)cc1` [V190506, (2R,3S,4S)-2-[(4-fluorophenyl)methyl]-4-hydroxypyrrolidin-3-yl N-[(3-fluorophenyl)methyl]carbamate], the IC50 in the experiment with CCNTB1 is less than 10 µM; in the experiment with CCND1 it was 10 to 20 µM; in the experiment on MCL-1, less than 10 µM; in the experiment on MYC, less than 10 µM.

On to `COc1ccc(C[C@H]2NC[C@H](O)[C@H]2OC(=O)NCc2nnc(C)o2)cc1` [V188303, (2R,3S,4S)-4-hydroxy-2-[(4-methoxyphenyl)methyl]pyrrolidin-3-yl N-[(5-methyl-1,3,4-oxadiazol-2-yl)methyl]carbamate], for which the IC50 in the experiment with CCNTB1, in the experiment with CCND1, in the experiment on MCL-1 and in the experiment on MYC was less than 10 µM throughout.

On to `COc1ccc(C[C@H]2NC[C@H](O)[C@H]2OC(=O)NCC23CC(N)(C2)C3)cc1` [V188323, (2R,3S,4S)-4-hydroxy-2-[(4-methoxyphenyl)methyl]pyrrolidin-3-yl N-({3-aminobicyclo[1.1.1]pentan-1-yl}methyl)carbamate], for which the IC50 is less than 10 µM in the experiment with CCNTB1, 20 to 30 µM in the experiment on CCND1, 20 to 30 µM with MCL-1 and 10 to 20 µM with MYC.

Take `COc1ccc(C[C@H]2NC[C@H](O)[C@H]2OC(=O)NCc2ccc(NS(C)(=O)=O)cc2)cc1` [V191955, (2R,3S,4S)-4-hydroxy-2-[(4-methoxyphenyl)methyl]pyrrolidin-3-yl N-[(4-methanesulfonamidophenyl)methyl]carbamate]: the IC50 in the experiment with CCNTB1, in the experiment on CCND1, in the experiment with MCL-1 and in the experiment on MYC was less than 10 µM throughout.

`COc1ccc(C[C@H]2NC[C@H](O)[C@H]2OC(=O)NCc2ccccc2Cl)cc1` [V191915, (2R,3S,4S)-4-hydroxy-2-[(4-methoxyphenyl)methyl]pyrrolidin-3-yl N-[(2-chlorophenyl)methyl]carbamate]: the IC50 with CCNTB1, with CCND1, in the experiment on MCL-1 and in the experiment with MYC was less than 10 µM throughout.

For the molecule `O=C(NCC[C@@H]1CCCN1)O[C@@H]1[C@@H](O)CN[C@@H]1Cc1ccc(F)cc1` [V191886, (2R,3S,4S)-2-[(4-fluorophenyl)methyl]-4-hydroxypyrrolidin-3-yl N-{2-[(2S)-pyrrolidin-2-yl]ethyl}carbamate], the IC50 with CCNTB1, with CCND1, with MCL-1 and with MYC was less than 10 µM in each case.

As for `COc1ccc(C[C@H]2NC[C@H](O)[C@H]2OC(=O)NCC23CC(C2)C3)cc1` [V188324, (2R,3S,4S)-4-hydroxy-2-[(4-methoxyphenyl)methyl]pyrrolidin-3-yl N-{bicyclo[1.1.1]pentan-1-ylmethyl}carbamate], the IC50 in the experiment with CCNTB1 was less than 10 µM; with CCND1, 10 to 20 µM; with MCL-1, 10 to 20 µM; with MYC it was 10 to 20 µM.

As to `COc1ccc(C[C@H]2NC[C@H](O)[C@H]2OC(=O)NCC=C(C)C)cc1` [V190411, (2R,3S,4S)-4-hydroxy-2-[(4-methoxyphenyl)methyl]pyrrolidin-3-yl N-(3-methylbut-2-en-1-yl)carbamate], the IC50 in the experiment with CCNTB1 was less than 10 µM; in the experiment on CCND1, 10 to 20 µM; in the experiment on MCL-1 it was 10 to 20 µM; in the experiment on MYC it was 10 to 20 µM.

With `COc1ccc(C[C@H]2NC[C@H](O)[C@H]2OC(=O)NCc2ccccc2C#N)cc1` [V191911, (2R,3S,4S)-4-hydroxy-2-[(4-methoxyphenyl)methyl]pyrrolidin-3-yl N-[(2-cyanophenyl)methyl]carbamate], the IC50 in the experiment with CCNTB1 is less than 10 µM; with CCND1, 10 to 20 µM; in the experiment with MCL-1 it was less than 10 µM; with MYC, less than 10 µM.

As to `COc1ccc(C[C@H]2NC[C@H](O)[C@H]2OC(=O)NCc2ccc(CN)cc2)cc1` [V188322, (2R,3S,4S)-4-hydroxy-2-[(4-methoxyphenyl)methyl]pyrrolidin-3-yl N-{[4-(aminomethyl)phenyl]methyl}carbamate], the IC50 with CCNTB1, with CCND1, in the experiment on MCL-1 and with MYC was less than 10 µM each time.

With `O=C(NCC1CC1)O[C@@H]1[C@@H](O)CN[C@@H]1Cc1ccc(-c2c[nH]nn2)cc1` [V188327, (2R,3S,4S)-4-hydroxy-2-{[4-(1H−1,2,3-triazol-4-yl)phenyl]methyl}pyrrolidin-3-yl N-(cyclopropylmethyl)carbamate], the IC50 in the experiment on CCNTB1, in the experiment with CCND1, with MCL-1 and in the experiment on MYC was less than 10 µM each time.

For `CCCOc1ccc(C[C@H]2NC[C@H](O)[C@H]2OC(=O)NCc2ccccc2)cc1` [V188376, (2R,3S,4S)-4-hydroxy-2-[(4-propoxyphenyl)methyl]pyrrolidin-3-yl N-benzylcarbamate], the IC50 with CCNTB1 is less than 10 µM; in the experiment with CCND1 it was 10 to 20 µM; with MCL-1, less than 10 µM; with MYC it was less than 10 µM.

For `COc1ccc(C[C@H]2NC[C@H](O)[C@H]2OC(=O)NCc2ccc(Cl)s2)cc1` [V188373, (2R,3S,4S)-4-hydroxy-2-[(4-methoxyphenyl)methyl]pyrrolidin-3-yl N-[(5-chlorothiophen-2-yl)methyl]carbamate], the IC50 in the experiment on CCNTB1, with CCND1, in the experiment on MCL-1 and with MYC was less than 10 µM each time.

By IC50 is commonly meant the concentration that inhibits the measured activity by half.
